Test results: US12391737B2, “Soluble NPY2 receptor agonists” (Boehringer Ingelheim International GmbH, priority 2020, dated 2025)

Test: Solubility determination
Conditions: for Sol6: pH 6; for Sol7: pH 7
Description: Peptides (as TFA salts) were weighed out in a filter unit (Mini-UniPrep Syringeless Filter 0.45 μm, Whatman), and 0.1 M sodium diphosphate buffer at pH 6.4 or 7.0 was added to achieve 10 mg/ml final concentration. The peptide was dissolved by shaking the filter unit horizontally at 600 rpm for 2 hours at room temperature. The sample was filtered, to remove any insoluble particles and diluted to 1 mg/ml in 50% acetonitrile. The control was prepared by weighing out the corresponding peptide and dissolving it in 50% acetonitrile to final concentration of 1 mg/ml. Both the control and sample were analysed with reversed phase chromatography. The area under the peak of the sample was compared to the control and the solubility was calculated based on that ratio.
The pH was measured and recorded for each sample.
System: UltiMate 3000 UPLC, ThermoFisher
Mobile phase A: 5% acetonitrile, 95% water, 0.03% trifluoracetic acid.
Mobile phase B: 95% acetonitrile, 5% water, 0.03% trifluoracetic acid.
Gradient: 0-100% mobile phase B (2 mins.)
Column temperature: 50° C.

Sol6 | Sol7 | SMILES
0.0 mg/mL | 0.0 mg/mL | CC[C@H](C)[C@H](NC(=O)[C@H](CCC(=O)O)NC(=O)[C@H](CCC(=O)O)NC(=O)[C@@H]1CCCN1C(=O)[C@H](CCC(=O)O)NC(=O)[C@H](C)NC(=O)[C@H](C)NC(=O)[C@H](C)NC(=O)[C@H](CCC(=O)O)NC(=O)[C@@H]1CCCN1C(=O)[C@H](CCCCNC(=O)CCCCCNC(=O)CC[C@H](NC(=O)CCCCCCCCCCCCCCCCC(=O)O)C(=O)O)NC(=O)[C@H](C)NC(=O)[C@@H]1CCCN1C(=O)[C@H](C)NC(=O)CC(C)C)C(=O)N[C@@H](CCC(N)=O)C(=O)N[C@@H](CCCNC(=N)N)C(=O)N[C@@H](Cc1ccc(O)cc1)C(=O)N[C@@H](Cc1ccc(O)cc1)C(=O)N[C@H](C(=O)N[C@@H](C)C(=O)N[C@@H](CC(C)C)C(=O)N[C@@H](CCCNC(=N)N)C(=O)N[C@@H](Cc1c[nH]cn1)C(=O)N[C@@H](Cc1ccc(O)cc1)C(=O)N[C@@H](Cc1ccc(O)cc1)C(=O)N[C@@H](CC(N)=O)C(=O)N[C@@H](Cc1c[nH]c2ccccc12)C(=O)N[C@@H](CC(C)C)C(=O)N[C@H](C(=O)N[C@@H](CCCNC(=N)N)C(=O)N[C@@H](CCC(N)=O)C(=O)N[C@@H](CCCNC(=N)N)C(=O)N[C@@H](Cc1ccc(O)cc1)C(N)=O)[C@@H](C)O)C(C)C [Compound 116, N{alpha-4}-(3-methylbutanoyl)-N{epsilon-7}-(6-[(4S)-4-carboxy-4-(17-carboxyheptadecanamido)butanamido]hexanoyl)-[4A,6A,7K,9E,10A,11A,13E,17I,18Q,22V,23A,28Y,30W,31L]-hPYY(4-36)]
8.1 mg/mL | 7.6 mg/mL | CC(C)CC(=O)N[C@@H](C)C(=O)N1CCC[C@H]1C(=O)N[C@@H](C)C(=O)N[C@@H](CCCCNC(=O)CCCCCNC(=O)CC[C@H](NC(=O)CCCCCCCCCCCCCCCCC(=O)O)C(=O)O)C(=O)N1CCC[C@H]1C(=O)N[C@@H](CCC(=O)O)C(=O)N[C@@H](CCC(=O)O)C(=O)N[C@@H](CC(=O)O)C(=O)N[C@@H](C)C(=O)N[C@@H](CO)C(=O)N1CCC[C@H]1C(=O)N[C@@H](CCC(=O)O)C(=O)N[C@@H](CCC(=O)O)C(=O)N[C@@H](CC(C)C)C(=O)N[C@@H](CCC(N)=O)C(=O)N[C@@H](CCCNC(=N)N)C(=O)N[C@@H](Cc1ccc(O)cc1)C(=O)N[C@@H](Cc1ccc(O)cc1)C(=O)N[C@H](C(=O)N[C@@H](CO)C(=O)N[C@@H](CC(C)C)C(=O)N[C@@H](CCCNC(=N)N)C(=O)N[C@@H](Cc1c[nH]cn1)C(=O)N[C@@H](Cc1ccc(O)cc1)C(=O)N[C@@H](Cc1ccc(O)cc1)C(=O)N[C@@H](CCC(N)=O)C(=O)N[C@@H](Cc1c[nH]c2ccccc12)C(=O)N[C@@H](CC(C)C)C(=O)N[C@H](C(=O)N[C@@H](CCCNC(=N)N)C(=O)N[C@@H](CCC(N)=O)C(=O)N[C@@H](CCCNC(=N)N)C(=O)N[C@@H](Cc1ccc(O)cc1)C(N)=O)[C@@H](C)O)C(C)C [Compound 78, N{alpha-4}-(3-methylbutanoyl)-N{epsilon-7}-(6-[(4S)-4-carboxy-4-(17-carboxyheptadecanamido)butanamido]hexanoyl)-[4A,6A,7K,9E,18Q,22V,28Y,29Q,30W,31L]-hPYY(4-36)]
9.0 mg/mL | 8.5 mg/mL | CC(C)CC(=O)N[C@@H](C)C(=O)N1CCC[C@H]1C(=O)N[C@@H](CCC(=O)O)C(=O)N[C@@H](CCCCNC(=O)CCCCCNC(=O)CC[C@H](NC(=O)CCCCCCCCCCCCCCCCC(=O)O)C(=O)O)C(=O)N1CCC[C@H]1C(=O)N[C@@H](CCC(=O)O)C(=O)N[C@@H](CCC(=O)O)C(=O)N[C@@H](CC(=O)O)C(=O)N[C@@H](C)C(=O)N[C@H](C(=O)N1CCC[C@H]1C(=O)N[C@@H](CCC(=O)O)C(=O)N[C@@H](CCC(=O)O)C(=O)N[C@@H](CC(C)C)C(=O)N[C@@H](CCC(N)=O)C(=O)N[C@@H](CCCNC(=N)N)C(=O)N[C@@H](Cc1ccc(O)cc1)C(=O)N[C@@H](CCC(N)=O)C(=O)N[C@H](C(=O)N[C@@H](CO)C(=O)N[C@@H](CC(C)C)C(=O)N[C@@H](CCCNC(=N)N)C(=O)N[C@@H](Cc1c[nH]cn1)C(=O)N[C@@H](Cc1ccc(O)cc1)C(=O)N[C@@H](Cc1ccc(O)cc1)C(=O)N[C@@H](CC(N)=O)C(=O)N[C@@H](Cc1c[nH]c2ccccc12)C(=O)N[C@@H](CC(C)C)C(=O)N[C@H](C(=O)N[C@@H](CCCNC(=N)N)C(=O)N[C@@H](CCC(N)=O)C(=O)N[C@@H](CCCNC(=N)N)C(=O)N[C@@H](Cc1ccc(O)cc1)C(N)=O)[C@@H](C)O)C(C)C)[C@@H](C)O [Compound 115, N{alpha-4}-(3-methylbutanoyl)-N{epsilon-7}-(6-[(4S)-4-carboxy-4-(17-carboxyheptadecanamido)butanamido]hexanoyl)-[4A,7K,9E,13T,18Q,21Q,22V,28Y,30W,31L]-hPYY(4-36)]
9.6 mg/mL | 10.0 mg/mL | CC(C)CC(=O)N[C@@H](C)C(=O)N1CCC[C@H]1C(=O)N[C@@H](CCC(=O)O)C(=O)N[C@@H](CCCCNC(=O)CCCCCNC(=O)CC[C@H](NC(=O)CCCCCCCCCCCCCCCCC(=O)O)C(=O)O)C(=O)N1CCC[C@H]1C(=O)N[C@@H](CCC(=O)O)C(=O)N[C@@H](C)C(=O)N[C@@H](CC(=O)O)C(=O)N[C@@H](C)C(=O)N[C@@H](CCC(=O)O)C(=O)N1CCC[C@H]1C(=O)N[C@@H](CCC(=O)O)C(=O)N[C@@H](CCC(=O)O)C(=O)N[C@@H](CC(C)C)C(=O)N[C@@H](CCC(N)=O)C(=O)N[C@@H](CCCNC(=N)N)C(=O)N[C@@H](Cc1ccc(O)cc1)C(=O)N[C@@H](Cc1ccc(O)cc1)C(=O)N[C@H](C(=O)N[C@@H](C)C(=O)N[C@@H](CC(C)C)C(=O)N[C@@H](CCCNC(=N)N)C(=O)N[C@@H](Cc1c[nH]cn1)C(=O)N[C@@H](Cc1ccc(O)cc1)C(=O)N[C@@H](Cc1ccc(O)cc1)C(=O)N[C@@H](CC(N)=O)C(=O)N[C@@H](Cc1c[nH]c2ccccc12)C(=O)N[C@@H](CC(C)C)C(=O)N[C@H](C(=O)N[C@@H](CCCNC(=N)N)C(=O)N[C@@H](CCC(N)=O)C(=O)N[C@@H](CCCNC(=N)N)C(=O)N[C@@H](Cc1ccc(O)cc1)C(N)=O)[C@@H](C)O)C(C)C [Compound 6, N{alpha-4}-(3-methylbutanoyl)-N{epsilon-7}-(6-[(4S)-4-carboxy-4-(17-carboxyheptadecanamido)butanamido]hexanoyl)[4A,7K,9E,10A,13E,18Q,22V,23A,28Y,30W,31L]-hPYY(4-36)]
8.8 mg/mL | 9.1 mg/mL | CC(C)CC(=O)N[C@@H](C)C(=O)N1CCC[C@H]1C(=O)N[C@@H](C)C(=O)N[C@@H](CCCCNC(=O)CCCCCNC(=O)CC[C@H](NC(=O)CCCCCCCCCCCCCCCCC(=O)O)C(=O)O)C(=O)N1CCC[C@H]1C(=O)N1CCC[C@H]1C(=O)N[C@@H](CCC(=O)O)C(=O)N[C@@H](CC(=O)O)C(=O)N[C@@H](C)C(=O)N[C@@H](CCC(=O)O)C(=O)N1CCC[C@H]1C(=O)N[C@@H](CCC(=O)O)C(=O)N[C@@H](CCC(=O)O)C(=O)N[C@@H](CC(C)C)C(=O)N[C@@H](CCC(N)=O)C(=O)N[C@@H](CCCNC(=N)N)C(=O)N[C@@H](Cc1ccc(O)cc1)C(=O)N[C@@H](Cc1ccc(O)cc1)C(=O)N[C@H](C(=O)N[C@@H](CO)C(=O)N[C@@H](CC(C)C)C(=O)N[C@@H](CCCNC(=N)N)C(=O)N[C@@H](Cc1c[nH]cn1)C(=O)N[C@@H](Cc1ccc(O)cc1)C(=O)N[C@@H](Cc1ccc(O)cc1)C(=O)N[C@@H](CC(N)=O)C(=O)N[C@@H](Cc1c[nH]c2ccccc12)C(=O)N[C@@H](CC(C)C)C(=O)N[C@H](C(=O)N[C@@H](CCCNC(=N)N)C(=O)N[C@@H](CCC(N)=O)C(=O)N[C@@H](CCCNC(=N)N)C(=O)N[C@@H](Cc1ccc(O)cc1)C(N)=O)[C@@H](C)O)C(C)C [Compound 165, N{alpha-4}-(3-methylbutanoyl)-N{epsilon-7}-(6-[(4S)-4-carboxy-4-(17-carboxyheptadecanamido)butanamido]hexanoyl)-[4A,6A,7K,9P,13E,18Q,22V,28Y,30W,31L]-hPYY(4-36)]
0.0 mg/mL | 0.0 mg/mL | CC(C)CC(=O)N[C@@H](C)C(=O)N1CCC[C@H]1C(=O)N[C@@H](C)C(=O)N[C@@H](CCCCNC(=O)CCCCCNC(=O)CC[C@H](NC(=O)CCCCCCCCCCCCCCCCC(=O)O)C(=O)O)C(=O)N1CCC[C@H]1C(=O)N[C@@H](CCC(=O)O)C(=O)N[C@@H](C)C(=O)N[C@@H](C)C(=O)N[C@@H](C)C(=O)N[C@@H](CCC(=O)O)C(=O)N1CCC[C@H]1C(=O)N[C@@H](CCC(=O)O)C(=O)N[C@@H](CCC(=O)O)C(=O)N[C@@H](CC(C)C)C(=O)N[C@@H](CCC(N)=O)C(=O)N[C@@H](CCCNC(=N)N)C(=O)N[C@@H](Cc1ccc(O)cc1)C(=O)N[C@@H](Cc1ccc(O)cc1)C(=O)N[C@H](C(=O)N[C@@H](C)C(=O)N[C@@H](CC(C)C)C(=O)N[C@@H](CCCNC(=N)N)C(=O)N[C@@H](Cc1c[nH]cn1)C(=O)N[C@@H](Cc1ccc(O)cc1)C(=O)N[C@@H](Cc1ccc(O)cc1)C(=O)N[C@@H](CC(N)=O)C(=O)N[C@@H](Cc1c[nH]c2ccccc12)C(=O)N[C@@H](CC(C)C)C(=O)N[C@H](C(=O)N[C@@H](CCCNC(=N)N)C(=O)N[C@@H](CCC(N)=O)C(=O)N[C@@H](CCCNC(=N)N)C(=O)N[C@@H](Cc1ccc(O)cc1)C(N)=O)[C@@H](C)O)C(C)C [Compound 10, N{alpha-4}-(3-methylbutanoyl)-N{epsilon-7}-(6-[(4S)-4-carboxy-4-(17-carboxyheptadecanamido)butanamido]hexanoyl)[4A,6A,7K,9E,10A,11A,13E,18Q,22V,23A,28Y,30W,31L]-hPYY(4-36)]
